The values that follow come from patent US7977375B2, “Antibiotic and method of production thereof” (Helmholtz-Zentrum Für Infektionsforschung GmbH, priority 2004, dated 2011).

One test relates to E. faecium VRAR E315. Nature of the test: MIC / MBC in liquid culture. The test is classed as cell-based, Enterococcus faecium. The following applies: E. faecium VRAR E315.
Test [1] deals with human epithelial cell line HeLa. The experiment in a line: inhibition of proliferation, CyQUANT cell proliferation test. The test is classed as cell-based. The method, then:
(§1) The cytotoxicity of 7-O-malonyl macrolactin A was compared to that of 7-O-succinyl macrolactin A and macrolactin A in vitro with respect to the inhibition of the proliferation of L929 mouse fibroblast cells or the human epithelial cell line HeLa.
(§2) For the cell culture, the HeLa cells were cultivated in low-glucose DMEM medium (Gibco), and the L929 cells in high-glucose DMEM medium. Both were supplemented with 10% by volume foetal calf serum (Gibco) at 37° C. in an atmosphere containing 5% CO2. The cells were extracted from stock cultures by means of trypsinization with EDTA (HeLa) or without EDTA (L929), then counted and diluted to 2×10^5 cells/ml. For the tests, microtitre plates (Nunc.) comprising 96 depressions were plated out in serial dilution without or in the presence of the test compounds or methanol. Determination of morphological alterations of the cells was carried out by means of phase contrast microscopy after 1, 2 and 5 days incubation.
(§3) After 5 days cultivation, cell counts were determined by the CyQUANT cell proliferation test (Molecular Probes), which is a highly sensitive microtitre plate test based on fluorescence. The test employs the dye CyQUANT, which, by binding to cellular nucleic acids, enhances fluorescence, which can then be measured by fluorescein excitation. The emission of fluorescence by the dye-nucleic acid complex correlated linearly with the cell count. For test purposes, the residue was carefully removed after 5 days incubation, the cells washed with PBS (phosphate buffered saline solution), the buffer removed and the cells frozen at −80° C. For the test, the cells were thawed at ambient temperature and lysated in a buffered solution containing the dye CyQUANT, in accordance with manufacturer's instructions. Fluorescence was measured by means of a fluormetric microtitre-plate reader (Titertex Fluorskan II) (excitation at 480 nm, emission at 520 nm). The […] were used to calculate the percentage of cellular proliferation in medium both alone and in the presence of serial dilutions of methanol and the macrolactin compounds. […] Proliferation was measured by means of the fluorescence-based test CyQUANT for determining viable cell counts. Table 5 illustrates the relative inhibition of proliferation as compared to a control culture comprising fresh medium without the addition of a macrolactin.

Test [2] relates to L929 mouse fibroblast cells. The test is described as above. Type of test: cell-based. The following applies: Mus musculus, L929, 120 h, 5 days. The method, then:
as §1, §2, §3

Structures are written as SMILES. In brackets after ≈: the same amount, converted by molar mass.

Broadly, the inhibition is the drop in the measured response relative to a control, in per cent. A higher inhibition goes with strong suppression. For the molecule `CC1CCC/C=C/C=C/C(O)CC(O)C/C=C\C=C\C(OC(=O)CC(=O)O)C/C=C/C=C\C(=O)O1` (stereo not drawn) [7-O-malonyl macrolactin A], the “MIC (minimal inhibitory concentration)” value with E. faecium VRAR E315 was greater than 128 µg/mL. The MBC with E. faecium VRAR E315 (Enterococcus faecium, VRARE315, read-out: MBC (minimal bacteriostatic or fungistatic concentration)) was 4 µg/mL (≈ 8.19 µM). Also, the MIC in the test with E. faecium VRAR E315 (Enterococcus faecium, VRARE315, read-out: MIC (minimal inhibitory concentration)) is greater than 128 µg/mL. The “Inhibition of proliferation” value in test [1] (62.5 μg/ml, CyQUANT test) was “practically complete inhibition of growth”; in test [1] (compound concentration 15.6 μg/ml, 5 days), “failed to inhibit the proliferation”; in test [1] (compound concentration 31.25 μg/ml, 5 days), “capable of inhibiting the proliferation”. Besides, the inhibition at 3.9 µg/mL was 0% in test [1] (Homo sapiens, 120 h, compound concentration 3.9 μg/ml, 5 days) and 0% in test [2] (compound concentration 3.9 μg/ml). Besides, the inhibition at 7.8 µg/mL in test [1] (Homo sapiens, 120 h, compound concentration 7.8 μg/ml, 5 days) was 0%; in test [2] (compound concentration 7.8 μg/ml), 0%. The inhibition at 15.6 µg/mL is 0% in test [1] (Homo sapiens, 120 h, compound concentration 15.6 μg/ml, 5 days) and roughly 32% in test [2] (compound concentration 15.6 μg/ml). Besides, the inhibition at 31.25 µg/mL in test [1] (Homo sapiens, 120 h, compound concentration 31.25 μg/ml, 5 days) came out at 62%; in test [2] (compound concentration 31.25 μg/ml) it was 80%. Also, the inhibition at 56.5 µg/mL in test [1] (Homo sapiens, 120 h, compound concentration 56.5 μg/ml, 5 days) is 93%; in test [2] (compound concentration 56.5 μg/ml) it was 86%. The inhibition at 125 µg/mL came out at 100% in test [1] (Homo sapiens, 120 h, compound concentration 125 μg/ml, 5 days) and 84% in test [2] (compound concentration 125 μg/ml).
